Assay results as given in ChEMBL document CHEMBL5724914, “Linking interpersonal differences in gut microbiota composition and drug biotransformation activity” (2024).

Key:
[1] = (§1) The drug is tested on Z-023 corresponding to metagenome with ENA study accession number: PRJEB37062 and ENA sample accession number: ERS12561822 for biotransformation under anaerobic condition. The drug concentrations were measured over 9 timepoints collected between 0 and 24 hours of incubation by liquid-chromatography-coupled mass spectrometry (LC–MS); settings: 2 µM
[2] = as §1, with “Z-021” for “Z-023”, “ERS12561820” for “ERS12561822”; settings: 2 µM
[3] = (§2) The drug is tested on Z-019 corresponding to rat gut metagenome with ENA study accession number: PRJEB37062 and ENA sample accession number: ERS12561818 for biotransformation under anaerobic condition. The drug concentrations were measured over 9 timepoints collected between 0 and 24 hours of incubation by liquid-chromatography-coupled mass spectrometry (LC–MS); settings: 2 µM
[4] = as §2, with “on Z-016” for “on Z-019”, “to mouse” for “to rat”, “number: ERS12561815” for “number: ERS12561818”; settings: 2 µM
[5] = as §1, with “Z-010” for “Z-023”, “ERS12561810” for “ERS12561822”; settings: 2 µM
[6] = as §2, with “on WLS-170” for “on Z-019”, “to human” for “to rat”, “number: ERS12561762” for “number: ERS12561818”; settings: 2 µM
[7] = as §2, with “on WLS-077” for “on Z-019”, “to human” for “to rat”, “number: ERS12561750” for “number: ERS12561818”; settings: 2 µM
[8] = as §2, with “on WLS-007” for “on Z-019”, “to human” for “to rat”, “number: ERS12561742” for “number: ERS12561818”; settings: 2 µM
[9] = human gut metagenome, 24 h, 2 µM
[10] = human gut metagenome, 24 h, 2 µM; remark: listed apart in the source
[11] = human gut metagenome, 24 h, 2 µM; remark: listed apart in the source
[12] = human gut metagenome, 24 h, 2 µM; remark: listed apart in the source
[13] = human gut metagenome, 24 h, 2 µM; remark: listed apart in the source
[14] = human gut metagenome, 24 h, 2 µM; remark: listed apart in the source
[15] = human gut metagenome, 24 h, 2 µM; remark: listed apart in the source
[16] = human gut metagenome, 24 h, 2 µM; remark: listed apart in the source
[17] = human gut metagenome, 24 h, 2 µM; remark: listed apart in the source
[18] = human gut metagenome, 24 h, 2 µM; remark: listed apart in the source
[19] = human gut metagenome, 24 h, 2 µM; remark: listed apart in the source
[20] = human gut metagenome, 24 h, 2 µM; remark: listed apart in the source
Also: call rule not given here.

CC12CC3CC(C)(C1)CC(N)(C3)C2 [MEMANTINE]
Bacterial Biotransformation [1]: Compound metabolized | Bacterial Biotransformation [2]: Compound NOT metabolized | Bacterial Biotransformation [3]: Compound NOT metabolized | Bacterial Biotransformation [4]: Compound NOT metabolized | Bacterial Biotransformation [5]: Compound NOT metabolized | Bacterial Biotransformation [6]: Compound metabolized | Bacterial Biotransformation [7]: Compound NOT metabolized | Bacterial Biotransformation [8]: Compound NOT metabolized | Bacterial Biotransformation [9]: Compound NOT metabolized | Bacterial Biotransformation [10]: Compound NOT metabolized | Bacterial Biotransformation [11]: Compound NOT metabolized | Bacterial Biotransformation [12]: Compound NOT metabolized | Bacterial Biotransformation [13]: Compound NOT metabolized | Bacterial Biotransformation [14]: Compound NOT metabolized | Bacterial Biotransformation [15]: Compound NOT metabolized | Bacterial Biotransformation [16]: Compound NOT metabolized | Bacterial Biotransformation [17]: Compound NOT metabolized | Bacterial Biotransformation [18]: Compound NOT metabolized | Bacterial Biotransformation [19]: Compound NOT metabolized | Bacterial Biotransformation [20]: Compound NOT metabolized

C=C[C@H]1CN2CC[C@H]1C[C@H]2[C@H](O)c1ccnc2ccc(OC)cc12.C=C[C@H]1CN2CC[C@H]1C[C@H]2[C@H](O)c1ccnc2ccc(OC)cc12.O.O.O=S(=O)(O)O [QUININE SULFATE]
Bacterial Biotransformation [1]: Compound NOT metabolized | Bacterial Biotransformation [2]: Compound NOT metabolized | Bacterial Biotransformation [3]: Compound NOT metabolized | Bacterial Biotransformation [4]: Compound NOT metabolized | Bacterial Biotransformation [5]: Compound metabolized | Bacterial Biotransformation [6]: Compound metabolized | Bacterial Biotransformation [7]: Compound NOT metabolized | Bacterial Biotransformation [8]: Compound NOT metabolized | Bacterial Biotransformation [9]: Compound NOT metabolized | Bacterial Biotransformation [10]: Compound NOT metabolized | Bacterial Biotransformation [11]: Compound NOT metabolized | Bacterial Biotransformation [12]: Compound metabolized | Bacterial Biotransformation [13]: Compound NOT metabolized | Bacterial Biotransformation [14]: Compound NOT metabolized | Bacterial Biotransformation [15]: Compound metabolized | Bacterial Biotransformation [16]: Compound metabolized | Bacterial Biotransformation [17]: Compound metabolized | Bacterial Biotransformation [18]: Compound NOT metabolized | Bacterial Biotransformation [19]: Compound NOT metabolized | Bacterial Biotransformation [20]: Compound metabolized

O=C(CCCN1CCC2(CC1)C(=O)NCN2c1ccccc1)c1ccc(F)cc1 [SPIPERONE]
Bacterial Biotransformation [1]: Compound metabolized | Bacterial Biotransformation [2]: Compound NOT metabolized | Bacterial Biotransformation [3]: Compound NOT metabolized | Bacterial Biotransformation [4]: Compound NOT metabolized | Bacterial Biotransformation [5]: Compound metabolized | Bacterial Biotransformation [6]: Compound metabolized | Bacterial Biotransformation [7]: Compound NOT metabolized | Bacterial Biotransformation [8]: Compound NOT metabolized | Bacterial Biotransformation [9]: Compound NOT metabolized | Bacterial Biotransformation [10]: Compound metabolized | Bacterial Biotransformation [11]: Compound NOT metabolized | Bacterial Biotransformation [12]: Compound NOT metabolized | Bacterial Biotransformation [13]: Compound NOT metabolized | Bacterial Biotransformation [14]: Compound NOT metabolized | Bacterial Biotransformation [15]: Compound NOT metabolized | Bacterial Biotransformation [16]: Compound NOT metabolized | Bacterial Biotransformation [17]: Compound metabolized | Bacterial Biotransformation [18]: Compound metabolized | Bacterial Biotransformation [19]: Compound metabolized | Bacterial Biotransformation [20]: Compound NOT metabolized

CC(=O)OCC(CCn1cnc2cnc(N)nc21)COC(C)=O [FAMCICLOVIR]
Bacterial Biotransformation [1]: Compound metabolized | Bacterial Biotransformation [2]: Compound NOT metabolized | Bacterial Biotransformation [3]: Compound NOT metabolized | Bacterial Biotransformation [4]: Compound NOT metabolized | Bacterial Biotransformation [5]: Compound metabolized | Bacterial Biotransformation [6]: Compound metabolized | Bacterial Biotransformation [7]: Compound metabolized | Bacterial Biotransformation [8]: Compound metabolized | Bacterial Biotransformation [9]: Compound metabolized | Bacterial Biotransformation [10]: Compound metabolized | Bacterial Biotransformation [11]: Compound metabolized | Bacterial Biotransformation [12]: Compound NOT metabolized | Bacterial Biotransformation [13]: Compound metabolized | Bacterial Biotransformation [14]: Compound metabolized | Bacterial Biotransformation [15]: Compound metabolized | Bacterial Biotransformation [16]: Compound metabolized | Bacterial Biotransformation [17]: Compound metabolized | Bacterial Biotransformation [18]: Compound metabolized | Bacterial Biotransformation [19]: Compound metabolized | Bacterial Biotransformation [20]: Compound metabolized

CCc1cccc2c3c([nH]c12)C(CC)(CC(=O)O)OCC3 (stereo not given) [ETODOLAC]
Bacterial Biotransformation [1]: Compound NOT metabolized | Bacterial Biotransformation [2]: Compound NOT metabolized | Bacterial Biotransformation [3]: Compound NOT metabolized | Bacterial Biotransformation [4]: Compound NOT metabolized | Bacterial Biotransformation [5]: Compound NOT metabolized | Bacterial Biotransformation [6]: Compound metabolized | Bacterial Biotransformation [7]: Compound NOT metabolized | Bacterial Biotransformation [8]: Compound metabolized | Bacterial Biotransformation [9]: Compound metabolized | Bacterial Biotransformation [10]: Compound metabolized | Bacterial Biotransformation [11]: Compound metabolized | Bacterial Biotransformation [12]: Compound NOT metabolized | Bacterial Biotransformation [13]: Compound NOT metabolized | Bacterial Biotransformation [14]: Compound metabolized | Bacterial Biotransformation [15]: Compound metabolized | Bacterial Biotransformation [16]: Compound metabolized | Bacterial Biotransformation [17]: Compound metabolized | Bacterial Biotransformation [18]: Compound metabolized | Bacterial Biotransformation [19]: Compound metabolized | Bacterial Biotransformation [20]: Compound metabolized

CCCC(C)(COC(N)=O)COC(=O)NC(C)C (stereo not given) [CARISOPRODOL]
Bacterial Biotransformation [1]: Compound metabolized | Bacterial Biotransformation [2]: Compound NOT metabolized | Bacterial Biotransformation [3]: Compound NOT metabolized | Bacterial Biotransformation [4]: Compound metabolized | Bacterial Biotransformation [5]: Compound metabolized | Bacterial Biotransformation [6]: Compound metabolized | Bacterial Biotransformation [7]: Compound metabolized | Bacterial Biotransformation [8]: Compound metabolized | Bacterial Biotransformation [9]: Compound metabolized | Bacterial Biotransformation [10]: Compound metabolized | Bacterial Biotransformation [11]: Compound metabolized | Bacterial Biotransformation [12]: Compound NOT metabolized | Bacterial Biotransformation [13]: Compound metabolized | Bacterial Biotransformation [14]: Compound metabolized | Bacterial Biotransformation [15]: Compound metabolized | Bacterial Biotransformation [16]: Compound metabolized | Bacterial Biotransformation [17]: Compound metabolized | Bacterial Biotransformation [18]: Compound metabolized | Bacterial Biotransformation [19]: Compound metabolized | Bacterial Biotransformation [20]: Compound metabolized

COc1ccc(C(CN(C)C)C2(O)CCCCC2)cc1 (stereo not given) [VENLAFAXINE]
Bacterial Biotransformation [1]: Compound NOT metabolized | Bacterial Biotransformation [2]: Compound NOT metabolized | Bacterial Biotransformation [3]: Compound NOT metabolized | Bacterial Biotransformation [4]: Compound NOT metabolized | Bacterial Biotransformation [5]: Compound NOT metabolized | Bacterial Biotransformation [6]: Compound NOT metabolized | Bacterial Biotransformation [7]: Compound NOT metabolized | Bacterial Biotransformation [8]: Compound NOT metabolized | Bacterial Biotransformation [9]: Compound NOT metabolized | Bacterial Biotransformation [10]: Compound NOT metabolized | Bacterial Biotransformation [11]: Compound NOT metabolized | Bacterial Biotransformation [12]: Compound NOT metabolized | Bacterial Biotransformation [13]: Compound NOT metabolized | Bacterial Biotransformation [14]: Compound NOT metabolized | Bacterial Biotransformation [15]: Compound NOT metabolized | Bacterial Biotransformation [16]: Compound NOT metabolized | Bacterial Biotransformation [17]: Compound metabolized | Bacterial Biotransformation [18]: Compound NOT metabolized | Bacterial Biotransformation [19]: Compound metabolized | Bacterial Biotransformation [20]: Compound NOT metabolized

Cc1cc(C)cc(OCC2CNC(=O)O2)c1 (stereo not given) [METAXALONE]
Bacterial Biotransformation [1]: Compound NOT metabolized | Bacterial Biotransformation [2]: Compound NOT metabolized | Bacterial Biotransformation [3]: Compound NOT metabolized | Bacterial Biotransformation [4]: Compound NOT metabolized | Bacterial Biotransformation [5]: Compound NOT metabolized | Bacterial Biotransformation [6]: Compound metabolized | Bacterial Biotransformation [7]: Compound metabolized | Bacterial Biotransformation [8]: Compound metabolized | Bacterial Biotransformation [9]: Compound NOT metabolized | Bacterial Biotransformation [10]: Compound NOT metabolized | Bacterial Biotransformation [11]: Compound metabolized | Bacterial Biotransformation [12]: Compound NOT metabolized | Bacterial Biotransformation [13]: Compound metabolized | Bacterial Biotransformation [14]: Compound metabolized | Bacterial Biotransformation [15]: Compound metabolized | Bacterial Biotransformation [16]: Compound metabolized | Bacterial Biotransformation [17]: Compound metabolized | Bacterial Biotransformation [18]: Compound metabolized | Bacterial Biotransformation [19]: Compound metabolized | Bacterial Biotransformation [20]: Compound metabolized

Br.COc1ccc2c(c1)[C@]13CCCC[C@@H]1[C@H](C2)N(C)CC3.O [DEXTROMETHORPHAN HYDROBROMIDE]
Bacterial Biotransformation [1]: Compound metabolized | Bacterial Biotransformation [2]: Compound metabolized | Bacterial Biotransformation [3]: Compound NOT metabolized | Bacterial Biotransformation [4]: Compound NOT metabolized | Bacterial Biotransformation [5]: Compound metabolized | Bacterial Biotransformation [6]: Compound NOT metabolized | Bacterial Biotransformation [7]: Compound metabolized | Bacterial Biotransformation [8]: Compound NOT metabolized | Bacterial Biotransformation [9]: Compound metabolized | Bacterial Biotransformation [10]: Compound metabolized | Bacterial Biotransformation [11]: Compound NOT metabolized | Bacterial Biotransformation [12]: Compound metabolized | Bacterial Biotransformation [13]: Compound NOT metabolized | Bacterial Biotransformation [14]: Compound metabolized | Bacterial Biotransformation [15]: Compound metabolized | Bacterial Biotransformation [16]: Compound metabolized | Bacterial Biotransformation [17]: Compound metabolized | Bacterial Biotransformation [18]: Compound metabolized | Bacterial Biotransformation [19]: Compound NOT metabolized | Bacterial Biotransformation [20]: Compound metabolized
